Experiments:
β1-adrenergic receptor = target: T1, β1-adrenergic receptor (Homo sapiens, UniProt P08588); assay: Functional cellular cAMP (HTRF) assay, CHO cells expressing β1-ARs; assay type: cell-based; settings: relative to isoproterenol
T1 construct: expressed in transfected cells; host or cells: CHO
Procedure: The potency and maximal effect of vibegron and mirabegron for β3-adrenergic receptors and the selectivity for each […] receptor were determined. Functional cellular assays for vibegron and mirabegron activity were performed using Chinese hamster ovary (CHO) cells expressing β1- or β2-ARs and human embryonic kidney (HEK) 293 cells expressing β3-ARs. Cells were incubated with vibegron, mirabegron, or the appropriate control (isoproterenol for β1 and β3, procaterol for β2). Responses were quantified using homogeneous time-resolved fluorescence of cyclic adenosine monophosphate. Half-maximal effective concentration (EC50) and maximum response (Emax) values were determined by nonlinear least-squares regression analysis.

[1] = test system: mice with induced myocardial infarction; assay: Post-MI chronic heart failure in mice, invasive hemodynamics with isoproterenol; assay type: in vivo, mouse; settings: 4 weeks of treatment
Description: (§1) Myocardial infarction was induced in 10-12 week C57B/6 wild-type mice and after 2 weeks echo cardiograms were used to assess the MI severity in each mouse. Mice were randomized for treatment based on similarity and severity of the induced infarct. The mice were started with either vibegron or vehicle (1-3 doses) administered by continuous infusion using 2 week minipumps (Azlet Corp.) that were filled with the appropriate dose and implanted subcutaneously on the back of each animal in the region of the scapula. The minipumps were replaced with new minipumps in the same location at the 2 week time point and dosed for 4 weeks in total. Cardiac function was assessed by echocardiography (Echo) at 0, 2, 4, and 6 weeks. Some mice were subjected to terminal catheterization to measure hemodynamic pressures and adrenergic responsiveness. At the end of the 4 week treatment period (i.e., 6 weeks after MI was induced), cardiac function was measured, mice were sacrificed for histology of the heart, and terminal blood was collected to confirm the serum concentration of vibegron.
(§2) • 1. Day 0 (after 1-2 weeks acclimation)—pre-surgery Echo • 2. Perform LAD Ligation (MI) or Sham procedure • 3. Day 14—Echo and randomly assign groups • 4. Day 14—begin administration of vehicle and drug for 4 weeks • 5. Day 28—Echo (operator blinded to groups)—change pumps for another 2 week dosing • 6. Day 42—Echo (operator blinded to groups) • 7. Day 42—Some were used for hemodynamics and ISO dose response and all animals sacrificed. Some were used for histology and some for RNA/Protein analysis. Blood was also collected at the time of sacrifice to determine serum concentrations.
Invasive Measurements: The hemodynamic measurements occurred at the end of the study as described in the protocols above. […] Hemodynamic measurements were collected and analyzed for cardiac function.
The maximum (dp/dt max) rate of pressure change during contraction and minimum (dp/dt min) rate of pressure change during relaxation of the left ventricle were measured with increasing doses of isoproterenol in combination with vibegron. […]

[2] = test system: mice with induced myocardial infarction; assay: Post-MI chronic heart failure in mice, heart histology (Mason's trichrome); assay type: in vivo, mouse; settings: for Average % Infarcted Myocardium / Average Left Ventricle Lumen Area: Week 6
Description: as §1, §2
At the end of the study period, blood samples were processed for subsequent analysis of compound and decided biomarkers. At the end of the study, the heart was either preserved in formalin (for section, and staining) or snap frozen (for isolation of whole heart RNA, DNA and protein) as described above.
Histologies were obtained by sectioning the mouse hearts vertically in such a way that all four chambers were visible upon staining. The area of the left ventricle cavity was measured by staining with Mason's trichrome stain. The darker color indicates healthy myocardium and the lighter color indicates connective tissue, which is the largest component of infarcted myocardium.

[3] = Plasma titer after 4 weeks of treatment in post-MI mice; assay type: in vivo, mouse; settings: after 4 weeks of treatment (week 6), FIG. 6
Description: as §1
• 1. Day 0 (after 1-2 weeks acclimation)—pre-surgery Echo • 2. Perform LAD Ligation (MI) or Sham procedure • 3. Day 14—Echo and randomly assign groups • 4. Day 14—begin administration of vehicle and drug for 4 weeks • 5. Day 28—Echo (operator blinded to groups)—change pumps for another 2 week dosing • 6. […]

T1 sequence (P08588 whole entry): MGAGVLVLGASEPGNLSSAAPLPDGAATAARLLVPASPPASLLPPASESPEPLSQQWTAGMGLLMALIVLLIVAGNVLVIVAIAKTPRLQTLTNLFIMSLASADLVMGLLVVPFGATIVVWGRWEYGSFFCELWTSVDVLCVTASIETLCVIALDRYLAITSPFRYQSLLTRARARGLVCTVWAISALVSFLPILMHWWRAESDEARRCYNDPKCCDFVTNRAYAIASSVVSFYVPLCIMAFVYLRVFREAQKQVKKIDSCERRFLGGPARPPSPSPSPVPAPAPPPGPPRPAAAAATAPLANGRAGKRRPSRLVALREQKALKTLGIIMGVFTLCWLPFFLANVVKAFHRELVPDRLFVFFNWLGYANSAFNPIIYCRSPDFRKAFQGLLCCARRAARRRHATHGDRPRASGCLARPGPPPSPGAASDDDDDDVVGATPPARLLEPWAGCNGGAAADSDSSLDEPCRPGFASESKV

O=C(Nc1ccc(C[C@@H]2CC[C@H]([C@H](O)c3ccccc3)N2)cc1)[C@@H]1CCc2nccc(=O)n21 [Vibegron, (6S)—N-[4-[[(2S,5R)-5-[(R)-hydroxy(phenyl)methyl]pyrrolidin-2-yl]methyl]phenyl]-4-oxo-7,8-dihydro-6H-pyrrolo[1,2-a]pyrimidine-6-carboxamide]
β1-adrenergic activity (% Activity) (β1-adrenergic receptor): 0%
Maximum rate of pressure change (dp/dt max) during left ventricle contraction ([1]; increasing doses of isoproterenol, FIG. 4A): increased
Minimum rate of pressure change (dp/dt min) during left ventricle relaxation ([1]; increasing doses of isoproterenol, FIG. 4B): decreased
Change in heart rate with increasing doses of isoproterenol ([1]; versus mice not receiving vibegron, FIG. 4C): higher increase in heart rate
Amount of healthy myocardium after infarction (trichrome stain) ([2]; MI mice, 4 weeks of treatment, versus vehicle, FIGS. 5A-5F): increases the amount of healthy myocardium after infarction
Average % Infarcted Myocardium ([2]; MI mice, high dose (10 mg/kg)): 7.68%
Average Left Ventricle Lumen Area ([2]; MI mice, high dose (10 mg/kg)): 75,061 AU
Average % Infarcted Myocardium ([2]; MI mice, low dose (1 mg/kg)): 21.79%
Average Left Ventricle Lumen Area ([2]; MI mice, low dose (1 mg/kg)): 170,789 AU
Average % Infarcted Myocardium ([2]; MI mice, medium dose (3 mg/kg)): 18.85%
Average Left Ventricle Lumen Area ([2]; MI mice, medium dose (3 mg/kg)): 72,474 AU
Adverse effects in healthy hearts (LV lumen area, infarcted myocardium) ([2]; sham mice, high dose): no adverse effects
Average Left Ventricle Lumen Area ([2]; sham mice, high dose (10 mg/kg)): 46,167 AU
Vibegron plasma titer [3]: consistent with the dosing
